PubChem BioAssay (NCI)
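A five-concentration, 48-hour dose response in 96-well plates underlies each endpoint, interpolated linearly between surrounding concentrations. The concentration for 50% growth inhibition is given as GI50. TGI denotes the concentration required for complete inhibition of growth.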

How the values were obtained:
Assay in all cases: DTP human tumour cell line panel, 48 h
[1] = test system: RPMI-8226 leukemia
[2] = test system: HCC-2998 colon
[3] = test system: NCI-H23 lung
[4] = test system: HCT-116 colon
[5] = test system: UO-31 renal
[6] = test system: OVCAR-5 ovarian
[7] = test system: A498 renal
[8] = test system: HOP-62 NSCLC
[9] = test system: HL-60(TB) leukemia
[10] = test system: SK-OV-3 ovarian

CCC[CH2][Sn]([CH2]CCC)([O]C(=O)C(N)CSC)[O]C(=O)C(N)CSC (stereo unspecified)
GI50 [1]: 2.16 µM
TGI [1]: 7.58 µM
GI50 [2]: 13.1 µM
TGI [2]: 30.5 µM
GI50 [3]: 2.75 µM
TGI [3]: 13.1 µM
GI50 [4]: 11.6 µM
TGI [4]: 24.7 µM
GI50 [5]: 14.3 µM
TGI [5]: 27.4 µM
GI50 [6]: 15.7 µM
TGI [6]: 35.6 µM
GI50 [7]: 3.91 µM

O=C1NC(=S)NC(=O)C1=Cc1cccc2cc3ccccc3cc12
TGI [2]: 3.89 µM
TGI [8]: 4.16 µM
TGI [9]: 5.67 µM
TGI [3]: 4.62 µM
TGI [4]: 3.74 µM
TGI [10]: 8.79 µM
TGI [5]: 3.94 µM
TGI [6]: 5.21 µM
TGI [7]: 3.63 µM

Cc1cc(C)nc(NS(=O)(=O)c2ccc(Nc3c4ccc(Cl)cc4nc4c(C(=O)Nc5ccc(S(=O)(=O)N=C(N)N)cc5)cccc34)cc2)n1
TGI [1]: > 100 µM
TGI [2]: > 100 µM
TGI [8]: > 100 µM
TGI [3]: > 100 µM
TGI [4]: > 100 µM
TGI [10]: > 100 µM
TGI [5]: > 100 µM
TGI [6]: > 100 µM
TGI [7]: > 100 µM

COc1ccc2c(c1)CCc1[nH]c3ccccc3c1CCCC2
TGI [1]: > 10 µM
TGI [2]: > 10 µM
TGI [8]: > 10 µM
TGI [9]: > 10 µM
TGI [3]: > 10 µM
TGI [4]: > 10 µM
TGI [10]: > 10 µM
TGI [6]: > 10 µM

Nc1ncn(C2C=C(CO)C(O)C2O)c(=O)n1 (stereo unspecified)
TGI [1]: > 100 µM
TGI [2]: > 100 µM
TGI [8]: > 100 µM
TGI [9]: > 100 µM
TGI [4]: > 100 µM
TGI [10]: > 100 µM
TGI [5]: > 100 µM
TGI [7]: > 100 µM

CCN(CC)CCNC(=O)c1nn(C)c(=S)[nH]c1=S
TGI [1]: > 100 µM
TGI [2]: > 100 µM
TGI [8]: > 100 µM
TGI [9]: > 100 µM
TGI [3]: > 100 µM
TGI [4]: > 100 µM
TGI [10]: > 100 µM
TGI [5]: > 100 µM
TGI [6]: > 100 µM

CC[O-].CC[O-].O=C1C(c2ccccc2)=C([O-])c2ccccc21.O=C1C(c2ccccc2)=C([O-])c2ccccc21.[Ti+4]
GI50 [1]: 30.3 µM
TGI [1]: 99.5 µM
GI50 [2]: > 100 µM
TGI [2]: > 100 µM
GI50 [8]: > 100 µM
TGI [8]: > 100 µM
GI50 [9]: > 100 µM
TGI [9]: > 100 µM
GI50 [3]: > 100 µM
TGI [3]: > 100 µM
GI50 [4]: > 100 µM
TGI [4]: > 100 µM
GI50 [10]: > 100 µM
TGI [10]: > 100 µM
GI50 [6]: > 100 µM
TGI [6]: > 100 µM

COc1cc2c(Oc3ccc4[nH]c(C)cc4c3F)ccnc2cc1OCC1(N)CC1
GI50 [1]: 2.1 µM
TGI [1]: 5.95 µM
GI50 [2]: 2.36 µM
TGI [2]: 11.8 µM
GI50 [8]: 1.59 µM
TGI [8]: 35.6 µM
GI50 [9]: 0.382 µM
TGI [9]: 1.95 µM
GI50 [4]: 0.745 µM
TGI [4]: 10.6 µM
GI50 [10]: 3.61 µM
TGI [10]: 80.2 µM
GI50 [5]: 0.864 µM
TGI [5]: 3.69 µM
GI50 [6]: 3.37 µM
TGI [6]: 10.3 µM
GI50 [7]: 2.2 µM
TGI [7]: 19.7 µM

Cc1cc2cc3c(C)cc(=O)oc3c(C)c2o1
TGI [1]: > 100 µM
TGI [2]: > 100 µM
TGI [8]: > 100 µM
TGI [9]: > 100 µM
TGI [3]: > 100 µM
TGI [4]: > 100 µM
TGI [5]: > 100 µM
TGI [6]: > 100 µM
TGI [7]: > 100 µM

O=c1[nH]c2c3ccccc3ccc2c2cc3c(cc12)OCO3
TGI [1]: > 100 µM
TGI [2]: > 100 µM
TGI [8]: > 100 µM
TGI [3]: > 100 µM
TGI [4]: > 100 µM
TGI [10]: > 100 µM
TGI [5]: > 100 µM
TGI [6]: > 100 µM

O=C([O][Hg][CH2]C1COCC([CH2][Hg][O]C(=O)c2ccccc2)O1)c1ccccc1 (stereo unspecified)
GI50 [1]: 2.75 µM
TGI [1]: 7.66 µM
GI50 [8]: 15.3 µM
TGI [8]: 31.1 µM
GI50 [9]: 3.84 µM
TGI [9]: 13.9 µM
GI50 [3]: 16.1 µM
TGI [3]: 36.8 µM
GI50 [4]: 1.56 µM
TGI [4]: 2.93 µM
GI50 [10]: 21.8 µM
TGI [10]: 43 µM
GI50 [5]: 1.82 µM
TGI [5]: 3.39 µM
GI50 [6]: 19.2 µM
TGI [6]: 35.9 µM
GI50 [7]: 17.1 µM
TGI [7]: 31.2 µM

COc1cccc(-c2nc3sccn3c2-c2ccnc(NCCNS(=O)(=O)c3ccccc3)c2)c1
GI50 [1]: 1.05 µM
TGI [1]: 3.65 µM
GI50 [2]: 6.23 µM
TGI [2]: > 100 µM
GI50 [8]: 4.24 µM
TGI [8]: 67.1 µM
GI50 [9]: 1.71 µM
TGI [9]: 5.56 µM
GI50 [3]: 2.64 µM
TGI [3]: 13.3 µM
GI50 [4]: 2.73 µM
TGI [4]: > 100 µM
GI50 [10]: 5.11 µM
TGI [10]: > 100 µM
GI50 [5]: 0.59 µM
TGI [5]: 6.65 µM
GI50 [6]: 5.65 µM
TGI [6]: > 100 µM

CCCC(C)C[C@@H](C)CC(C)/C=C(\C)c1oc(=O)c(C)c(O)c1C (stereo partly specified) (tested in a mixture with another compound)
TGI [2]: 25.5 µM
TGI [8]: 36.5 µM
TGI [9]: 29.8 µM
TGI [4]: 32.3 µM
TGI [5]: 27 µM
TGI [6]: 17.5 µM

CCc1nc(N)nc(C(=O)NCCNC(=O)c2nc(N)nc(CC)c2C)c1C
TGI [1]: > 100 µM
TGI [2]: > 100 µM
TGI [8]: > 100 µM
TGI [9]: > 100 µM
TGI [3]: > 100 µM
TGI [4]: > 100 µM
TGI [5]: > 100 µM
TGI [6]: > 100 µM
TGI [7]: > 100 µM

CSc1nc(NC(=O)O)c(N(C(C)=O)C(=O)O)c(=O)n1C
TGI [1]: > 100 µM
TGI [2]: > 100 µM
TGI [9]: > 100 µM
TGI [4]: > 100 µM
TGI [5]: > 100 µM
TGI [6]: > 100 µM
TGI [7]: > 100 µM

CN1CCCCCC(=N\O)/C(=N/O)CCCCC1
TGI [8]: > 100 µM
TGI [9]: > 100 µM
TGI [3]: > 100 µM
TGI [4]: > 100 µM
TGI [5]: > 100 µM
TGI [6]: > 100 µM
TGI [7]: > 100 µM

Cc1ccc(/C=C/C(=O)c2sc(-c3cccnc3)nc2C)cc1
TGI [1]: > 100 µM
TGI [2]: > 100 µM
TGI [8]: > 100 µM
TGI [9]: > 100 µM
TGI [3]: > 100 µM
TGI [10]: > 100 µM
TGI [5]: > 100 µM
TGI [6]: > 100 µM
TGI [7]: > 100 µM

Cc1cccc(Cl)c1NC(=O)/C=C/c1ccccc1
TGI [1]: > 100 µM
TGI [2]: > 100 µM
TGI [8]: > 100 µM
TGI [9]: > 100 µM
TGI [3]: > 100 µM
TGI [4]: > 100 µM
TGI [10]: > 100 µM
TGI [6]: > 100 µM
TGI [7]: > 100 µM

COc1ccc2cc3[n+](cc2c1OC)CCc1cc(O)c(O)cc1-3
TGI [1]: > 100 µM
TGI [8]: > 100 µM
TGI [9]: > 100 µM
TGI [3]: > 100 µM
TGI [4]: > 100 µM
TGI [10]: > 100 µM
TGI [5]: > 100 µM
TGI [6]: > 100 µM
TGI [7]: > 100 µM

O=C(Nc1cc[c]([Sb](=[O])([OH])[OH])cc1)c1ccccc1
GI50 [8]: > 100 µM
TGI [8]: > 100 µM
GI50 [3]: > 100 µM
TGI [3]: > 100 µM
GI50 [4]: > 100 µM
TGI [4]: > 100 µM
GI50 [5]: > 100 µM
TGI [5]: > 100 µM
GI50 [6]: > 100 µM
TGI [6]: > 100 µM
GI50 [7]: > 100 µM
TGI [7]: > 100 µM
